# Patent US20080234262A1 (Wyeth, priority 2007, published 2008)
# pIC50: −log10 of the molar value. Like-named read-outs stand apart in the source and are kept apart here.
# Key:
# PI3K = PI3K (Homo sapiens, UniProt P42336); test: Fluorescence polarization assay for PI3K; format: biochemical;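 further: PI3K kinase reaction on PIP2 with ATP, 30-60 min, product sensed by GST-GRP with red probe in fluorescence polarization (mP), controls without enzyme and at zero time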
# breast line MDA468 = test: In vitro cell culture growth assay (MTS), MDA468; format: cell-based, human; details: MDA468 cells, three days after drug treatment
# Method in brief: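 MDA468 or LNCap cells received inhibitors one day after plating and were grown for three days. Viable cell density read by MTS conversion, absorbance 490 nm, expressed as percent of control growth versus vehicle-treated cells on the same plate.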
# prostate line LNCap = test: In vitro cell culture growth assay (MTS), LNCap; format: cell-based, human; details: LNCap cells, three days after drug treatment
# Chain of PI3K (P42336 whole entry): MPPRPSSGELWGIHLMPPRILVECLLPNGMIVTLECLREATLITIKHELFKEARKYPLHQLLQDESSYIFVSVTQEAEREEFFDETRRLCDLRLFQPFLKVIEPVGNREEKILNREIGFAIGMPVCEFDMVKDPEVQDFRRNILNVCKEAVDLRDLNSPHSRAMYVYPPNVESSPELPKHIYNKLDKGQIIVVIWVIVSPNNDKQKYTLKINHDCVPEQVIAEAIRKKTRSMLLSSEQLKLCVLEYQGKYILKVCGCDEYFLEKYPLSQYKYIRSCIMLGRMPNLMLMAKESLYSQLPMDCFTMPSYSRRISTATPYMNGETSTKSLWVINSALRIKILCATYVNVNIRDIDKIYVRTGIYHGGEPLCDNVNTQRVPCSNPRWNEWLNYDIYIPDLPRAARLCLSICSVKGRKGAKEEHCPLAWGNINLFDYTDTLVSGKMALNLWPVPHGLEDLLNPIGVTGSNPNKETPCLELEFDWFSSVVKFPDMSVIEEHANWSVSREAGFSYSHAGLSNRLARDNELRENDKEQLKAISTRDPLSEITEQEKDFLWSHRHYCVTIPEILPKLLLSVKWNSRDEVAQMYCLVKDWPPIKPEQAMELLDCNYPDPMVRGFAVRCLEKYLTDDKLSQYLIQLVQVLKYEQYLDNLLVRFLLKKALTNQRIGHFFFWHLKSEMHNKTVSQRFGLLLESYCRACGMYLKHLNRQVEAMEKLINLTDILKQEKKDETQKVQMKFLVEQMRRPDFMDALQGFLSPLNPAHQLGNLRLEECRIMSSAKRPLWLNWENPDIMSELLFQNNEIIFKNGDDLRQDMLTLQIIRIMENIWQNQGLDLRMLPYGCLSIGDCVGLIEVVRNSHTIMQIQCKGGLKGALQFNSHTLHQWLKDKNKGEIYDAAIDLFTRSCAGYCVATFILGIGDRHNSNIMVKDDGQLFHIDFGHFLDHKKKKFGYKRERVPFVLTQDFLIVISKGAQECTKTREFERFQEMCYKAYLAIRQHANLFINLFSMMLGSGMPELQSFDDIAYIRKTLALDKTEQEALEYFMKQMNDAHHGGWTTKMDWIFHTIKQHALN
# Chain of PI3K (P27986 whole entry partner): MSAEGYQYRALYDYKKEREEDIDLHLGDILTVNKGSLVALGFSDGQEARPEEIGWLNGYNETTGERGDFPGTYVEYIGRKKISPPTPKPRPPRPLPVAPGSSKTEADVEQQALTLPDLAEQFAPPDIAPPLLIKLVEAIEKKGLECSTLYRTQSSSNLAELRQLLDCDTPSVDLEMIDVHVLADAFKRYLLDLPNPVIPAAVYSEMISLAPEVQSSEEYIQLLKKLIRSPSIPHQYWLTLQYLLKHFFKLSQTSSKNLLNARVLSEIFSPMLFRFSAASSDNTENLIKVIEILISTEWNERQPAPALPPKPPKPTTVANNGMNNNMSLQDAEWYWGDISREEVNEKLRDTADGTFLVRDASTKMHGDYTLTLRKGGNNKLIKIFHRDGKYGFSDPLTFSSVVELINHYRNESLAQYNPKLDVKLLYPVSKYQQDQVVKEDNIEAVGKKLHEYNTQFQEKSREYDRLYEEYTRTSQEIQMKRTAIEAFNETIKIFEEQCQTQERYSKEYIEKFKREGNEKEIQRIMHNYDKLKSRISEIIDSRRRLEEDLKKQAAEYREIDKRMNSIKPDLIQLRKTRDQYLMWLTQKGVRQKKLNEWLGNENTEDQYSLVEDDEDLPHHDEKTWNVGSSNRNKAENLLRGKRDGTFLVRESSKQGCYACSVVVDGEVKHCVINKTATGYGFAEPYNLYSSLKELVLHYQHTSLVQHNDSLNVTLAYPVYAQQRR
"pIC50 (PI3K; PI3Kα, read-out: PI3Kα IC50)","pIC50 (prostate line LNCap; Homo sapiens, LNCaP, 72 h)",pIC50 (prostate line LNCap),SMILES,"pIC50 (breast line MDA468; Homo sapiens, 72 h)",pIC50 (breast line MDA468),"pIC50 (PI3K; PI3Kα IC50, PI3Kα)","pIC50 (prostate line LNCap; Homo sapiens, 72 h)"
6.48,5.46,–,CS(=O)(=O)Nc1ccc(-c2nc(N3CCOCC3)c3cnn(-c4ccccc4)c3n2)cc1 [Compound 99],5.30,–,–,–
6.36,7.22,–,"CCNC(=O)Nc1ccc(-c2nc(N3CCOCC3)c3cnn(C4CCN(C(=O)c5cccnc5)CC4)c3n2)cc1 [Example 307, 1-ethyl-3-(4-{4-morpholin-4-yl-1-[1-(pyridin-3-ylcarbonyl)piperidin-4-yl]-1H-pyrazolo[3,4-d]pyrimidin-6-yl}phenyl)urea]",6.70,–,–,–
7.34,5.96,–,"CNC(=O)Nc1ccc(-c2nc(N3CCOCC3)c3cnn([C@@H]4CCCNC4)c3n2)cc1 [Compound 875, 1-methyl-3-(4-{4-morpholin-4-yl-1-[(3R)-piperidin-3-yl]-1H-pyrazolo[3,4-d]pyrimidin-6-yl}phenyl)urea]",5.90,–,–,–
7.55,6.85,–,"CNC(=O)Nc1ccc(-c2nc(N3CCOCC3)c3cnn(C4CCN(Cc5cccc(O)c5)CC4)c3n2)cc1 [Example 397, 1-(4-{1-[1-(3-hydroxybenzyl)piperidin-4-yl]-4-morpholin-4-yl-1H-pyrazolo[3,4-d]pyrimidin-6-yl}phenyl)-3-methylurea]",6.40,–,–,–
6.35,6.49,–,"CCOC(=O)N1CCC(n2ncc3c(N4CCOCC4)nc(-c4ccc(NC(=O)NCCO)cc4)nc32)CC1 [Compound 818, ethyl 4-[6-(4-{[(2-hydroxyethyl)carbamoyl]amino}phenyl)-4-morpholin-4-yl-1H-pyrazolo[3,4-d]pyrimidin-1-yl]piperidine-1-carboxylate]",6.60,–,–,–
7.18,6.22,–,"CNC(=O)Nc1ccc(-c2nc(N3CCOCC3)c3cnn(C4CCN(CC(N)=O)CC4)c3n2)cc1 [Example 332, 2-[4-(6-{4-[(methylcarbamoyl)amino]phenyl}-4-morpholin-4-yl-1H-pyrazolo[3,4-d]pyrimidin-1-yl)piperidin-1-yl]acetamide]",6.00,–,–,–
6.11,6.23,–,COc1cccc(C(=O)N2CCC(n3ncc4c(N5CCOCC5)nc(-c5ccc6[nH]ccc6c5)nc43)CC2)c1 [Example 48],5.64,–,–,–
6.73,7.25,–,"CNC(=O)Nc1ccc(-c2nc(N3CCOCC3)c3cnn(C4CCN(CC(F)(F)F)CC4)c3n2)cc1 [Example 470, 1-methyl-3-(4-{4-morpholin-4-yl-1-[1-(2,2,2-trifluoroethyl)piperidin-4-yl]-1H-pyrazolo[3,4-d]pyrimidin-6-yl}phenyl)urea]",6.52,–,–,–
5.26,4.70,–,COc1ccc(-c2nc(N3CCOCC3)c3cnn(-c4ccccc4)c3n2)cn1 [Example 4],4.42,–,–,–
5.78,5.70,–,"Nc1ccc(-c2nc(N3CCOCC3)c3cnn(C4CCN(Cc5ccccc5)CC4)c3n2)cc1F [Compound 594, 4-[1-(1-benzylpiperidin-4-yl)-4-morpholin-4-yl-1H-pyrazolo[3,4-d]pyrimidin-6-yl]-2-fluoroaniline]",5.40,–,–,–
5.51,5.60,–,O=C(c1ccc[n+]([O-])c1)N1CCC(n2ncc3c(N4CCOCC4)nc(-c4ccc5[nH]ccc5c4)nc32)CC1 [Compound 197],5.42,–,–,–
7.47,> 7.57,–,"COC(=O)N1CCC(n2ncc3c(N4CCOCC4)nc(-c4ccc(NC(=O)Nc5cccnc5)cc4)nc32)CC1 [Compound 737, methyl 4-(4-morpholin-4-yl-6-{4-[(pyridin-3-ylcarbamoyl)amino]phenyl}-1H-pyrazolo[3,4-d]pyrimidin-1-yl)piperidine-1-carboxylate]",> 7.57,–,–,–
5.93,4.96,–,"Nc1ccc(-c2nc(N3CCOCC3)c3cnn(C4CCN(Cc5ccccc5)CC4)c3n2)cc1[N+](=O)[O-] [Compound 183, 4-[1-(1-benzylpiperidin-4-yl)-4-morpholin-4-yl-1H-pyrazolo[3,4-d]pyrimidin-6-yl]-2-nitroaniline]",4.89,–,–,–
4.96,5.77,–,c1ccc2cc(-c3nc(N4CCOCC4)c4cnn(C5CCNCC5)c4n3)ccc2c1 [Example 44],5.85,–,–,–
7.48,7.57,–,"CNC(=O)Nc1ccc(-c2nc(N3CCOCC3)c3cnn(C4CCN(Cc5ccc(OC)nc5)CC4)c3n2)cc1 [Example 330, 1-[4-(1-{1-[(6-methoxypyridin-3-yl)methyl]piperidin-4-yl}-4-morpholin-4-yl-1H-pyrazolo[3,4-d]pyrimidin-6-yl)phenyl]-3-methylurea]",6.15,–,–,–
5.67,6.00,–,"O=C(NCCc1ccccc1)Nc1ccc(-c2nc(N3CCOCC3)c3cnn(C4CCN(Cc5ccccc5)CC4)c3n2)cc1 [Compound 505, 1-{4-[1-(1-benzylpiperidin-4-yl)-4-morpholin-4-yl-1H-pyrazolo[3,4-d]pyrimidin-6-yl]phenyl}-3-(2-phenylethyl)urea]",4.70,–,–,–
6.11,–,6.60,"COC(=O)Nc1ccc(-c2nc(N3CCOCC3)c3cnn(C4CCN(C(=O)c5ccccc5Cl)CC4)c3n2)cc1 [Compound 688, methyl (4-{1-[1-(2-chlorobenzoyl)piperidin-4-yl]-4-morpholin-4-yl-1H-pyrazolo[3,4-d]pyrimidin-6-yl}phenyl)carbamate]",–,6.12,–,–
7.09,7.57,–,"CNC(=O)Nc1ccc(-c2nc(N3CCOCC3)c3cnn(C4CCN(C(=O)c5ccccc5OC)CC4)c3n2)cc1 [Example 365, 1-(4-{1-[1-(2-methoxybenzoyl)piperidin-4-yl]-4-morpholin-4-yl-1H-pyrazolo[3,4-d]pyrimidin-6-yl}phenyl)-3-methylurea]",6.52,–,–,–
5.88,5.21,–,c1ccc(CN2CCC(n3ncc4c(N5CCOCC5)nc(-c5ccc6nonc6c5)nc43)CC2)cc1 [Compound 190],5.22,–,–,–
–,–,–,"CNC(=O)Nc1ccc(-c2nc(N3CCOCC3)c3cnn(C4CCN(C(=O)Oc5ccccc5)CC4)c3n2)cc1 [Compound 755, phenyl 4-(6-{4-[(methylcarbamoyl)amino]phenyl}-4-morpholin-4-yl-1H-pyrazolo[3,4-d]pyrimidin-1-yl)piperidine-1-carboxylate]",6.80,–,7.80,7.22
< 5.00,5.89,–,"COC(=O)N1CCC(n2ncc3c(N4CCOCC4)nc(-c4ccc(NC(=O)OCC(F)(F)F)cc4)nc32)CC1 [Compound 908, methyl 4-[4-morpholin-4-yl-6-(4-{[(2,2,2-trifluoroethoxy)carbonyl]amino}phenyl)-1H-pyrazolo[3,4-d]pyrimidin-1-yl]piperidine-1-carboxylate]",4.77,–,–,–
7.01,6.30,–,O=C(C1CC1)N1CCC(n2ncc3c(N4CCOCC4)nc(-c4cccc(O)c4)nc32)CC1 [Example 21],5.85,–,–,–
7.89,6.70,–,"CNCCNC(=O)Nc1ccc(-c2nc(N3CCOCC3)c3cnn(C4CCN(Cc5ccccc5)CC4)c3n2)cc1 [Example 300, 1-{4-[1-(1-benzylpiperidin-4-yl)-4-morpholin-4-yl-1H-pyrazolo[3,4-d]pyrimidin-6-yl]phenyl}-3-[2-(methylamino)ethyl]urea]",6.70,–,–,–
